Measured values taken from paper PMC4041848, “Differential Effects of Omeprazole and Lansoprazole Enantiomers on Aryl Hydrocarbon Receptor in Human Hepatocytes and Cell Lines” (PLoS ONE, 2014).
Where two headings read alike, the source gives them in different places.

Tests used:
CYP1A1 mRNA [1] = assay: CYP1A1 mRNA induction in primary human hepatocytes (qRT-PCR)
From the text: (§1) Primary human hepatocytes used in this study were obtained from two sources: (i) from multiorgan donor HH52; the use of liver cells of donor HH52 was approved by “Ethical committee at the Faculty Hospital Olomouc”,and it was in accordance with Transplantation law #285/2002 Sb; “Ethical committee at the Faculty Hospital Olomouc” waived the authors from obtaining consent from the next of kin, regarding human hepatocytes obtained from liver donor HH52. (ii) long-term human hepatocytes in monolayer Batch HEP220770 (person), Batch HEP220774 (person) were purchased from Biopredic International (Biopredic International, Rennes, France). Cells were cultured in serum-free medium. Cultures were maintained at 37°C and 5% CO2 in a humidified incubator.
(§2) Total RNA was isolated using TRI Reagent (Molecular Research Center, Cincinnati, OH, USA). cDNA was synthesized from 1000 ng of total RNA using M-MLV Reverse Transcriptase (Finnzymes, Espoo, Finland) at 42°C for 60 min in the presence of random hexamers (Takara, Shiga, Japan). qRT-PCR was carried out using LightCycler FastStart DNA MasterPLUS SYBR Green I (Roche Diagnostic Corporation, Prague, Czech Republic) on a Light Cycler 480 II apparatus (Roche Diagnostic Corporation). CYP1A1, CYP1A2 and GAPDH mRNAs were determined as described previously. Measurements were performed in triplicates. Gene expression was normalized to GAPDH as a housekeeping gene.
We examined a capability of omeprazole and lansoprazole to induce CYP1A1 and CYP1A2 mRNA and protein in primary human hepatocytes, which is a more physiological and metabolically competent cell model. Human hepatocytes were treated for 24 h or 48 h with TCDD (5 nM), vehicle (DMSO; 0.1% V/V) and tested compounds.
Figure 3 Effects of omeprazole and lansoprazole enantiomers on CYP1A1 mRNA, protein and EROD activity in primary human hepatocytes. Panel A and Panel B: RT-PCR analyses of CYP1A1 and CYP1A2 mRNA and western blots of CYP1A1 and CYP1A2 from two different cultures (HH52 and Hep220770) are shown. Human hepatocytes were incubated for 24 h (mRNA analysis) or 48 (protein analysis) with S-OME, R-OME, rac-OME, S-LAN, R-LAN, rac-LAN, TCDD and vehicle (DMSO; 0.1% v/v). RT-PCR data are the mean ± SD from triplicate measurements and are expressed as fold induction over vehicle-treated cells. Data were normalized to GAPDH mRNA levels. Density of bands in western blots was quantified by densitometry and the values are indicated along with respective blots. Panel C: EROD and cytotoxicity: Human hepatocytes (culture Hep220774) were treated for 24 h with S-OME, R-OME, rac-OME, S-LAN, R-LAN, rac-LAN, TCDD and vehicle (DMSO; 0.1% v/v). Upper bar graph: An activity of 7-ethoxyresorufin- O-deethylase (EROD) was measured by fluorescent spectrophotometry with 530 nm excitation and 590 nm emission filters. Treatments were performed in triplicates. The data are expressed as fold induction over the value from control cells. Lower bar graph: A conventional MTT test was performed and absorbance was measured at 540 nm. Treatments were performed in triplicates. The data are expressed as percentage of viability of control cells.

[2] = MTT cytotoxicity test in AZ-AHR reporter cells; conditions: human
Method: (§3) A stably transfected gene reporter cell line AZ-AHR, derived from human hepatoma HepG2 cells transfected with a construct containing several AhR binding sites upstream of a luciferase reporter gene, was used for assessment of AhR transcriptional activity. Cells were incubated for 24 h with tested compounds and/or vehicle (DMSO; 0.1% v/v), in the presence or absence of TCDD (10 nM; AZ-AHR cells) or DEX (100 nM; AZ-GR cells). After the treatments, cells were lysed and luciferase activity was measured. In parallel, cell viability was determined by conventional MTT test.
(§4) In the first series of experiments, the cytotoxicity of tested compounds was assessed in gene reporter cell line AZ-AHR. For this purpose, the cells were incubated for 24 h with S-OME, R-OME, rac-OME, S-LAN, R-LAN and rac-LAN at concentration ranging from 100 pM to 250 µM. The vehicle was DMSO (0.1% v/v). After the treatment, a conventional MTT test was performed.
(§5) Figure 1 Effect of omeprazole and lansoprazole enantiomers on transcriptional activity of aryl hydrocarbon receptor AhR in human gene reporter cell line AZ-AHR. The cells were seeded in 96-well plates and stabilized for 16 h. Panels A and B: Cells were incubated for 24 h with S-OME, R-OME, rac-OME, S-LAN, R-LAN and rac-LAN at concentrations ranging from 10^−10 M to 10^−4 M. The vehicle was DMSO (0.1% v/v). After the treatment, MTT test was performed and absorbance was measured at 540 nm. Treatments were performed in triplicates. The data are the mean from experiments from six different passages of cells and are expressed as a percentage of viability of control cells. The values of IC50 were calculated and are indicated in a figure. Panels C - F: AZ-AHR cells were incubated for 24 h with S-OME, R-OME, rac-OME, S-LAN, R-LAN and rac-LAN at concentrations ranging from 10^−10 M to 10^−4 M in the absence (Panels C and D - agonist mode) or in the presence (Panels E and F- antagonist mode) of TCDD (5 nM). The vehicle was DMSO (0.1% v/v). After the treatments, cells were lysed and luciferase activity was measured. Treatments were performed in triplicates in five (agonist mode) or four (antagonist mode) independent cell passages. […] Data are expressed as a fold induction of luciferase activity over control cells (Panels C and D - agonist mode) or as a percentage of maximal induction attained by TCDD (Panels E and F- antagonist mode).

[3] = system: aryl hydrocarbon receptor AhR; assay: AhR gene reporter assay, agonist mode; conditions: for AhR agonist efficacy: AZ-AHR cells, 24 h, compared to 5 nM TCDD, calculated at 100 µM compound (stated for omeprazole); for EC50 at 24 h: human
Method: as §3, §5
Gene reporter assays were performed in two different experimental layouts. […] In antagonist mode, cells were incubated with increasing concentrations of tested compounds in combination with model agonist (TCDD; 5 nM), and half-maximal inhibitory concentrations (IC50) were calculated. […] The efficacy was calculated at concentration of compounds of 100 µM and compared to 5 nM TCDD (Figure 1C).

AZ-AHR cells = assay: MTT cytotoxicity test in AZ-AHR reporter cells; conditions: AZ-AHR cells, 24 h, MTT, concentrations up to 250 µM
Method: as §3, §4, §5

CYP1A1 mRNA [4] = conditions: HepG2, 24 h
Method: as §2
Treatments were performed in triplicates.

CYP1A1 protein = CYP1A1 protein induction in primary human hepatocytes (western blot); conditions: hepatocyte culture Hep220770, 48 h, 100 µM
From the text: Primary human hepatocytes used in this study were obtained from two sources: (i) from multiorgan donor HH52; the use of liver cells of donor HH52 was approved by “Ethical committee at the Faculty Hospital Olomouc”,and it was in accordance with Transplantation law #285/2002 Sb; “Ethical committee at the Faculty Hospital Olomouc” waived the authors from obtaining consent from the next of kin, regarding human hepatocytes obtained from liver donor HH52. (ii) long-term human hepatocytes in monolayer Batch HEP220770 (person), Batch HEP220774 (person) were purchased from Biopredic International (Biopredic International, Rennes, France). Cells were cultured in serum-free medium. […]
Total protein extracts were prepared from cells cultured on 6-well plates. […] Supernatant was collected and the protein content was determined by the Bradford reagent. […] The density of bands was measured by densitometry. […]
Figure 3 Effects of omeprazole and lansoprazole enantiomers on CYP1A1 mRNA, protein and EROD activity in primary human hepatocytes. […] RT-PCR data are the mean ± SD from triplicate measurements and are expressed as fold induction over vehicle-treated cells. […] Density of bands in western blots was quantified by densitometry and the values are indicated along with respective blots. […] The data are expressed as fold induction over the value from control cells. […]

CYP1A2 mRNA = CYP1A2 mRNA induction in primary human hepatocytes (qRT-PCR); conditions: hepatocyte culture Hep220770, 24 h
From the text: as §1
as §2, with “Gene expression was normalized to GAPDH as a housekeeping gene.” left out

CYP1A2 protein = CYP1A2 protein induction in primary human hepatocytes (western blot); conditions: hepatocyte culture HH52, 48 h, 10 µM
From the text: as §1
Total protein extracts were prepared from cells cultured on 6-well plates. Cells were washed twice with ice-cold PBS and scraped into 1 ml of PBS. The suspension was centrifuged (4500 RPM/5 min/4°C) and the pellet was resuspended in 150 µl of ice-cold lysis buffer (150 mM NaCl; 10 mM Tris pH 7.2; 0.1% (w/v) SDS; anti-protease cocktail, 1% (v/v) Triton X-100; anti-phosphatase cocktail, 1% (v/v) sodium deoxycholate; 5 mM EDTA). […] Supernatant was collected and the protein content was determined by the Bradford reagent. […] The density of bands was measured by densitometry. […]
Figure 3 Effects of omeprazole and lansoprazole enantiomers on CYP1A1 mRNA, protein and EROD activity in primary human hepatocytes. […] RT-PCR data are the mean ± SD from triplicate measurements and are expressed as fold induction over vehicle-treated cells. […] Density of bands in western blots was quantified by densitometry and the values are indicated along with respective blots. […] Upper bar graph: An activity of 7-ethoxyresorufin- O-deethylase (EROD) was measured by fluorescent spectrophotometry with 530 nm excitation and 590 nm emission filters. […] The data are expressed as fold induction over the value from control cells. Lower bar graph: A conventional MTT test was performed and absorbance was measured at 540 nm. […] The data are expressed as percentage of viability of control cells.

[5] = set-up: method as in PMID 8710755, PMID 19298580; conditions: after oral administration of racemic drug; ref [8], [9]; cited from earlier work
[6] = hepatocyte culture Hep220770, 24 h, 100 µM

For `Cc1c(OCC(F)(F)F)ccnc1C[S+]([O-])c1nc2ccccc2[nH]1` (racemic) [rac-LAN, rac-lansoprazole], the “CYP1A1 mRNA induction” value (CYP1A1 mRNA [1]; [6]) was 358 fold, the IC50 at 24 h [2] was > 250 µM and the AhR agonist efficacy [3] was 22.8±5.6%. It also gave an EC50 at 24 h [3] of 2.4 ± 0.1 µM.

For `COc1ccc2[nH]c([S+]([O-])Cc3ncc(C)c(OC)c3C)nc2c1` (racemic) [rac-OME, rac-omeprazole], the “CYP1A1 mRNA induction” value (CYP1A1 mRNA [1]; [6]) was 740 fold, the “CYP1A1 mRNA induction” value (CYP1A1 mRNA [1]; hepatocyte culture Hep220770, 24 h, 250 µM) was 706 fold and the IC50 at 24 h [2] was > 250 µM. For the same molecule, the “cytotoxicity” value (AZ-AHR cells) was “not cytotoxic”, the AhR agonist efficacy [3] was 51.4±30.4% and the EC50 at 24 h [3] was 30.1 ± 2.2 µM. For the same molecule, the “CYP1A1 mRNA induction” value (CYP1A1 mRNA [4]; 250 µM) was “approximately 180 fold” and the “CYP1A1 protein induction” value (CYP1A1 protein) was “strong induction”.

In the case of `Cc1c(OCC(F)(F)F)ccnc1C[S@@+]([O-])c1nc2ccccc2[nH]1` [R-LAN, R-lansoprazole], the “effect on CYP1A2 mRNA relative to S-LAN” value (CYP1A2 mRNA) is reported as “two times stronger”, the “CYP1A1 mRNA induction” value (CYP1A1 mRNA [1]; hepatocyte culture HH52, 24 h, 100 µM) is reported as 17 % of TCDD induction and the “CYP1A1 mRNA induction” value (CYP1A1 mRNA [1]; [6]) is reported as 575 fold. The IC50 at 24 h [2] was > 250 µM, the AhR agonist efficacy [3] was 23.0±10.0% and the EC50 at 24 h [3] was 5.7 ± 2.9 µM. For the same molecule, the “CYP1A2 protein induction” value (CYP1A2 protein) was “strong induction”, the “CYP1A1 mRNA induction relative to S-LAN” value (CYP1A1 mRNA [4]; 100 µM) was “four times stronger” and the “CYP1A1 mRNA induction relative to rac-LAN” value (CYP1A1 mRNA [4]; 100 µM) was “two times stronger”. The “share of circulating drug” value [5] was “more than 80%” and the “systemic exposure relative to the S-enantiomer” value [5] was 5 fold.
